“And” between values parts separate entries of the source, which are not always exact repeats. Equal entries are not always repeated. Toxic doses and inconclusive results are not listed. Rule for the calls: active = survival T/C of 150% or more; inactive = T/C below 125% in these data. Square brackets hold non-standard residues; d marks the D form. Peptide text beside a SMILES is read from it. ξ: configuration not given here. ξF = NC(Cc1ccccc1)C(=O)O
Test system: BDF1 mice, B16 melanoma ip, median survival T/C
Experiment: NCI In Vivo Anticancer Drug Screen. Data for tumor model B16 Melanoma (intraperitoneal) in B6D2F1 (BDF1) mice
Conditions: endpoint: median survival time, higher = longer survival
Outline: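 The ratio T/C compares compound-treated mice with vehicle-treated controls, using survival or tumor size as the endpoint in a transplantable tumor model.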

[1] = dose: 100.0 mg/kg/injection, schedule: Q04DX003 (ip), vehicle: Klucel (hydroxypropylcellulose) (HPC)
[2] = dose: 200.0 mg/kg/injection, schedule: Q04DX003 (ip), vehicle: Klucel (hydroxypropylcellulose) (HPC)
[3] = dose: 6.25 mg/kg/injection, schedule: Q01DX009 (ip), vehicle: saline
[4] = dose: 12.5 mg/kg/injection, schedule: Q01DX009 (ip), vehicle: saline
[5] = dose: 25.0 mg/kg/injection, schedule: Q01DX009 (ip), vehicle: saline
[6] = dose: 50.0 mg/kg/injection, schedule: Q01DX009 (ip), vehicle: saline
[7] = dose: 100.0 mg/kg/injection, schedule: Q01DX009 (ip), vehicle: saline
[8] = dose: 200.0 mg/kg/injection, schedule: Q01DX009 (ip), vehicle: saline
[9] = dose: 6.25 mg/kg/injection, schedule: Q01DX009 (ip), vehicle: Klucel (hydroxypropylcellulose) (HPC)
[10] = dose: 12.5 mg/kg/injection, schedule: Q01DX009 (ip), vehicle: Klucel (hydroxypropylcellulose) (HPC)
[11] = dose: 25.0 mg/kg/injection, schedule: Q01DX009 (ip), vehicle: Klucel (hydroxypropylcellulose) (HPC)
[12] = dose: 50.0 mg/kg/injection, schedule: Q01DX009 (ip), vehicle: Klucel (hydroxypropylcellulose) (HPC)
[13] = dose: 100.0 mg/kg/injection, schedule: Q01DX009 (ip), vehicle: Klucel (hydroxypropylcellulose) (HPC)
[14] = dose: 200.0 mg/kg/injection, schedule: Q01DX009 (ip), vehicle: Klucel (hydroxypropylcellulose) (HPC)
[15] = dose: 25.0 mg/kg/injection, schedule: Q01DX009 (ip), vehicle: saline with Tween-80
[16] = dose: 50.0 mg/kg/injection, schedule: Q01DX009 (ip), vehicle: saline with Tween-80
[17] = dose: 100.0 mg/kg/injection, schedule: Q01DX009 (ip), vehicle: saline with Tween-80
[18] = dose: 100.0 mg/kg/injection, schedule: Q04DX003 (ip), vehicle: saline
[19] = dose: 200.0 mg/kg/injection, schedule: Q04DX003 (ip), vehicle: saline
[20] = dose: 400.0 mg/kg/injection, schedule: Q04DX003 (ip), vehicle: saline
[21] = dose: 400.0 mg/kg/injection, schedule: Q01DX009 (ip), vehicle: saline
[22] = dose: 200.0 mg/kg/injection, schedule: Q01DX009 (ip), vehicle: saline with Tween-80

Measured: T/C

CC[C@@H]1O[C@H]2O[C@@H](/C=C/C=C/C=C/c3oc(=O)cc(OC)c3C)[C@@H](O)[C@@]2(C)[C@]1(C)O
inactive: dose: 0.5 mg/kg/injection, schedule: Q01DX009 (ip), vehicle: Klucel (hydroxypropylcellulose) (HPC) 94 % of control | dose: 1.0 mg/kg/injection, schedule: Q01DX009 (ip), vehicle: Klucel (hydroxypropylcellulose) (HPC) 90 % of control | dose: 2.0 mg/kg/injection, schedule: Q01DX009 (ip), vehicle: Klucel (hydroxypropylcellulose) (HPC) 92 % of control

O=CNC(CSC(c1ccccc1)c1ccccc1)C(=O)O (centres undefined)
inactive: dose: 50.0 mg/kg/injection, schedule: Q04DX003 (ip), vehicle: Klucel (hydroxypropylcellulose) (HPC) 105 % of control | [1] 100 % of control | [2] 94 % of control

CC1(C)OC(=O)N(CO)C1=O
inactive: [3] 95 % of control | [4] 94 % of control and 109 % of control | [5] 94 % of control and 115 % of control | [6] 108 % of control and 115 % of control | [7] 114 % of control and 115 % of control | [8] 109 % of control and 117 % of control

CC(C)NCC(O)c1ccc(O)c(O)c1 (centres undefined)
inactive: dose: 17.5 mg/kg/injection, schedule: Q01DX009 (ip), vehicle: Klucel (hydroxypropylcellulose) (HPC) 101 % of control | dose: 35.0 mg/kg/injection, schedule: Q01DX009 (ip), vehicle: Klucel (hydroxypropylcellulose) (HPC) 99 % of control | dose: 70.0 mg/kg/injection, schedule: Q01DX009 (ip), vehicle: Klucel (hydroxypropylcellulose) (HPC) 94 % of control

[I][Hg][CH2]C1OCCOC1[CH2][Hg][I] (centres undefined)
inactive: [9] 100 % of control | [10] 101 % of control | [11] 106 % of control | [12] 107 % of control | [13] 105 % of control | [14] 95 % of control

CCOC(=O)c1cc(C(=O)OCC)c(=O)oc1OCC
inactive: [15] 102 % of control | [16] 100 % of control | [17] 100 % of control

Cc1cnc(=S)[nH]c1N
inactive: [12] 108 % of control | [13] 97 % of control | [14] 94 % of control

O=S(=O)(O)c1ccc2c(O)cc(S(=O)(=O)O)cc2c1
inactive: [18] 100 % of control | [19] 105 % of control | [20] 108 % of control

C=Cc1c(C)c2cc3[nH]c(cc4nc(cc5nc(cc1[nH]2)C(C)=C5CCC(=O)O)C(CCC(=O)O)=C4C)c(C)c3C=C
inactive: [9] 97 % of control | [10] 104 % of control | [11] 104 % of control | [12] 101 % of control

O=S(=O)(O)c1cc(O)c2ccccc2c1
inactive: [7] 107 % of control | [8] 100 % of control | [21] 102 % of control

C1CC[N-]CC1.C1CC[N-]CC1.N#C[S-].N#C[S-].[Cu]
inactive: dose: 2.5 mg/kg/injection, schedule: Q04DX003 (ip), vehicle: saline with Tween-80 110 % of control | dose: 5.0 mg/kg/injection, schedule: Q04DX003 (ip), vehicle: saline with Tween-80 93 % of control | dose: 10.0 mg/kg/injection, schedule: Q04DX003 (ip), vehicle: saline with Tween-80 93 % of control

CC(=O)CC(=O)OCc1ccccc1
inactive: [17] 107 % of control | [22] 105 % of control | dose: 400.0 mg/kg/injection, schedule: Q01DX009 (ip), vehicle: saline with Tween-80 100 % of control

CC(=O)OC12CC[N+]3(C)CCCCC3C1=Nc1ccccc12 (centres undefined)
inactive: [10] 109 % of control | [11] 104 % of control

NC(=O)c1ccccc1C(N)=O
inactive: [13] 100 % of control | [14] 106 % of control | dose: 400.0 mg/kg/injection, schedule: Q01DX009 (ip), vehicle: Klucel (hydroxypropylcellulose) (HPC) 93 % of control

CCOC(=O)N1CCc2nc3ccc(Cl)cc3cc21
inactive: [15] 113 % of control | [16] 111 % of control | [17] 124 % of control | [22] 106 % of control

CC1CNC(=S)O1 (centres undefined)
inactive: [5] 97 % of control | [6] 91 % of control | [7] 91 % of control | [8] 89 % of control | [21] 91 % of control

c1ccc(N2CCOCC2)cc1
inactive: [13] 96 % of control | [14] 96 % of control

Cc1ccc(C(=N)c2ccccc2Cc2cccc3ccccc23)c(C)c1
inactive: [16] 88 % of control

O=C(O)c1[nH]c(=O)[nH]c(=O)c1F
inactive: dose: 2.0 mg/kg/injection, schedule: Q01DX009 (ip), vehicle: saline 92 % of control | dose: 4.0 mg/kg/injection, schedule: Q01DX009 (ip), vehicle: saline 95 % of control

CC(=O)C(N=Nc1ccccc1)C(C)=O
inactive: [11] 100 % of control | [12] 113 % of control | [13] 113 % of control

CCOc1cc[n+]([O-])cc1
inactive: [6] 103 % of control | [7] 104 % of control | [8] 102 % of control

NCC(=O)NCC(=O)NC(Cc1ccccc1)C(=O)O (stereo not drawn) (H-Gly-Gly-[ξF]-OH)
inactive: [7] 90 % of control | [18] 92 % of control | [8] 90 % of control | [19] 97 % of control | [21] 93 % of control | [20] 90 % of control

O=[N+]([O-])c1ccc(C(O)CC(O)(C(F)(F)F)C(F)(F)F)cc1 (centres undefined)
inactive: [1] 97 % of control | [2] 97 % of control | dose: 400.0 mg/kg/injection, schedule: Q04DX003 (ip), vehicle: Klucel (hydroxypropylcellulose) (HPC) 95 % of control

CCCCCCCCCCCC[S+](C)C
inactive: dose: 2.0 mg/kg/injection, schedule: Q01DX009 (ip), vehicle: saline sonified 89 % of control | dose: 4.0 mg/kg/injection, schedule: Q01DX009 (ip), vehicle: saline sonified 102 % of control | dose: 5.0 mg/kg/injection, schedule: Q01DX009 (ip), vehicle: Klucel (hydroxypropylcellulose) (HPC) 97 % of control | dose: 8.0 mg/kg/injection, schedule: Q01DX009 (ip), vehicle: saline sonified 107 % of control | dose: 10.0 mg/kg/injection, schedule: Q01DX009 (ip), vehicle: Klucel (hydroxypropylcellulose) (HPC) 100 % of control | dose: 16.0 mg/kg/injection, schedule: Q01DX009 (ip), vehicle: saline sonified 100 % of control | dose: 20.0 mg/kg/injection, schedule: Q01DX009 (ip), vehicle: Klucel (hydroxypropylcellulose) (HPC) 88 % of control

CC(CNCCN)C[Si](C)(C)C (centres undefined)
inactive: dose: 12.5 mg/kg/injection, schedule: Q01DX009 (ip), vehicle: suspension in saline 99 % of control | dose: 25.0 mg/kg/injection, schedule: Q01DX009 (ip), vehicle: suspension in saline 96 % of control

Cc1ccc(NC(=O)Nc2cccc(Cl)c2C)cc1C
inactive: [11] 98 % of control | [12] 86 % of control | [13] 92 % of control

O=C1NC(c2cccc(OCc3ccccc3)c2)Nc2ccccc21 (centres undefined)
inactive: [11] 92 % of control | [12] 100 % of control | [13] 103 % of control | [14] 108 % of control

CC(C)NC1C2CCC(CC2)C1(O)c1ccc(Cl)c(Cl)c1 (centres undefined)
inactive: dose: 0.78 mg/kg/injection, schedule: Q01DX009 (ip), vehicle: saline 108 % of control | dose: 1.56 mg/kg/injection, schedule: Q01DX009 (ip), vehicle: saline 107 % of control | dose: 3.12 mg/kg/injection, schedule: Q01DX009 (ip), vehicle: saline 107 % of control | [3] 104 % of control | [4] 102 % of control

O=C(C=C(C(F)(F)F)C(F)(F)F)c1cccc([N+](=O)[O-])c1
inactive: dose: 0.2 mg/kg/injection, schedule: Q01DX009 (ip), vehicle: saline 95 % of control | dose: 0.4 mg/kg/injection, schedule: Q01DX009 (ip), vehicle: saline 102 % of control | dose: 0.8 mg/kg/injection, schedule: Q01DX009 (ip), vehicle: saline 95 % of control | dose: 6.25 mg/kg/injection, schedule: Q01DX009 (ip), vehicle: saline with Tween-80 86 % of control | dose: 6.25 mg/kg/injection, schedule: Q04DX003 (ip), vehicle: saline with Tween-80 113 % of control | dose: 25.0 mg/kg/injection, schedule: Q04DX003 (ip), vehicle: saline with Tween-80 111 % of control

— PubChem BioAssay AID192 (DTP/NCI, 2004)
